Source: PubChem BioAssay AID1996
≈ marks a conversion by molar mass, not a printed value.

conditions: buffer; pH 7.4; 200.0 µM

| solubility kinetic [µg/mL] | Compound |
| --- | --- |
| 0.5 (≈ 1.66 µM) | S=c1nc(NCc2cccc(Cl)c2)c2ccccc2[nH]1 |
| 15 (≈ 54.3 µM) | O=C(Cc1ccc([N+](=O)[O-])cc1)NC1CCCCCC1 |
| 48.6 (≈ 142 µM) | Cc1cc(C(=O)OCC(=O)N2CCOCC2)c(C)n1-c1ccccc1 |
| < 0.7 | Cc1cc2c(=O)oc(-c3ccc(Br)cc3)nc2s1 |
| > 42.2 | C=CCN1C(=O)C2C3CC(=O)C(c4ccccc43)C2C1=O (configuration not stated) |
| < 0.3 | CCc1nc2ccccc2c(C(=O)Nc2ccc(F)cc2)c1C |
| 2.4 (≈ 7.13 µM) | CCOc1cccc2cc(C(=O)NCc3ccc(C)cc3)c(=N)oc12 |
| > 46 | CN(C)/C(=N\S(=O)(=O)c1ccccc1)c1ccc(F)cc1 |
| 51.2 (≈ 144 µM) | Cc1ccc(Cn2c(N3CCNCC3)nc3c2c(=O)[nH]c(=O)n3C)cc1 |
| 6.7 | Cc1cc(C)c2sc(N(CCN(C)C)C(=O)c3ccc4ccccc4c3)nc2c1.Cl |
| 0.8 (≈ 2.58 µM) | CCn1c(CNC(=O)c2ccccc2F)cc2cc(C)ccc21 |
| > 35.8 | Cl.N=c1ccn(Cc2ccc(F)cc2)cc1 |
| 2.9 (≈ 9.2 µM) | Nc1nccnc1C(=O)OCC(=O)C12CC3CC(CC(C3)C1)C2 |
| 38.6 (≈ 139 µM) | COc1cc2ccccc2cc1C(=O)Nc1ccncc1 |
| 37.3 (≈ 123 µM) | Fc1ccc(NC(=S)N2CCc3ccccc3C2)c(F)c1 |
| > 55.1 | CC(NC(=O)CNC(=O)c1ccccc1Br)c1cccs1 (configuration not stated) |
| > 45.7 | COc1ccc(C)cc1Nc1c2c(nc3ccccc13)CCC2 |

The remaining lines, values behind:

| Compound | solubility kinetic [µg/mL] |
| --- | --- |
| Cc1cccc(/C=C/c2nc3ccccc3c(=O)[nH]2)c1 | 0.6 (≈ 2.29 µM) |
| O=C(COC(=O)/C=C/c1ccc(F)cc1)NCC1CCCO1 (configuration not stated) | > 46.1 |
| Cc1ccc(-c2csc3nc[nH]c(=O)c23)c(C)c1 | 2.4 (≈ 9.36 µM) |
| Nc1cccc(-c2nc3ccc(C(=O)c4ccccc4)cc3[nH]2)c1 | 20.3 (≈ 64.8 µM) |
| CCCn1c(Nc2cccc(OC)c2)nc2ccccc21 | 2.1 (≈ 7.46 µM) |
| NCCc1c(C(=O)O)[nH]c2ccc([N+](=O)[O-])cc12 | 35.4 (≈ 142 µM) |
| CC(CCc1ccccc1)NS(=O)(=O)c1ccccc1Cl (configuration not stated) | 20 (≈ 61.8 µM) |
| CCOc1ccccc1NC(=S)NC(=O)C1CCCCC1 | 0.6 (≈ 1.96 µM) |
| O=S(=O)(c1ccc(Cl)s1)N1CCCCC1 | 22 (≈ 82.8 µM) |
| O=CN1CCN(C(=O)c2ccc(Br)o2)CC1 | > 43.1 |
| COc1cc2c(cc1NC(=O)COCC(=O)O)oc1ccccc12 | > 49.4 |
| CCc1ccc(CCC(=O)Nc2ccc(Br)cc2)o1 | 4.4 (≈ 13.7 µM) |
| NC(=O)C1Cc2ccccc2CN1S(=O)(=O)c1ccc(Cl)s1 (configuration not stated) | > 53.5 |
| CC(C)(C)C(=O)c1cn(Cc2ccccc2)c2ccccc12 | 1.5 (≈ 5.15 µM) |
| c1ccc(COCC2CCNCC2)cc1 | > 30.8 |
| CCCC(=O)Oc1ccc(C2NC(=O)c3ccccc3O2)cc1OC (configuration not stated) | 3.9 (≈ 11.4 µM) |
| COP(=O)(OC)C(NC(=O)Nc1ccccc1)c1ccccc1 (configuration not stated) | 43.9 (≈ 131 µM) |
| Clc1cccc(Sc2ccc(-c3ccccn3)s2)c1 | < 0.7 |
| Cc1cc(C)c2c(ccc3cccc[n+]32)c1.[O-][Cl+3]([O-])([O-])[O-] | > 46.2 |
| Cc1ccc(CNC(=O)C2CCCC2)cc1 | 27.5 (≈ 127 µM) |
| CN(C)c1ccc(NC(=O)COC(=O)c2ccc3c(c2)OCO3)cc1 | 10.8 (≈ 31.5 µM) |
| COc1ccc(-c2cc(=O)oc3c(C)c(OCC(=O)N(C)C)ccc23)cc1 | 9.6 (≈ 26.1 µM) |
| CC1Oc2ccccc2N(CC(=O)NC2CCCCC2)C1=O (configuration not stated) | > 45.4 |
| CCN1C=C(C(=O)OC)C(c2cccc(OC)c2OC)C(C(=O)OC)=C1 | 8.4 (≈ 23.2 µM) |
| CCCCC1(C)NC(=O)N(CC(=O)N2CCc3ccccc32)C1=O (configuration not stated) | > 49.4 |
| O=C1COc2ccc(C(=O)COC(=O)Cc3ccccc3F)cc2N1 | 24 (≈ 69.9 µM) |
| CN(C)S(=O)(=O)c1ccc(Cl)c(NC(=O)COC(=O)CCC2CCCCC2)c1 | 7.3 (≈ 16.9 µM) |
| Cc1cc(NC(=O)CSc2cc(C)c3ccccc3n2)no1 | 2.2 (≈ 7.02 µM) |
| COc1cc(Cl)c(C)cc1NC(=O)CSc1nnc(CN2CCCC2)o1 | > 59.5 |
| COc1ccc(-n2c(C)nc3sc4c(c3c2=O)CCCC4)cc1 | 6.4 (≈ 19.6 µM) |
